Reference: PubChem BioAssay AID1918954 (Molecular Pharmacology Branch, DTP, NCI, 2023)

Tested on: MDA-MB-468 complex spheroids with HUVEC/MSC, viability
Assay: Anticancer human tumor MDA-MB-468 cell line growth inhibition;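 note: spheroids exposed to agents for seven days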
Details: for IC50: curve of first compound; for viability, T/C: stronger effect = lower value; active = viability on the fitted dose curve at most 10% of control; inactive = the rest
Source text: Multicellular complex tumor spheroid response to LSD1 Inhibitor Iadademstat in combination with a variety of drugs and investigational agents in selected tumor cell lines
The current study was undertaken to assess response to LSD1 inhibitors in combination with standard-of-care drugs and investigational agents in solid tumor complex spheroid models as well as in the K-562 leukemia. Complex spheroids include a stromal component modeled by human endothelial cells (HUVEC) and fibroblasts modeled by human mesenchymal stem cells (MSCs). The concentration ranges selected for each drug and investigational agent were based upon clinically achievable concentrations if the clinical Cmax of the agent was known.
Compounds. The drugs and investigational agents used in this study are listed on Table 1. All of the agents used, including staurosporine (NSC755774) and gemcitabine (NSC613327), were obtained from the Developmental Therapeutics Program, NCI. FDA-approved anticancer drugs are available from the NCI at http://dtp.nci.nih.gov/branches/dscb/oncology_drugset_explanation.html. Drugs and investigational agents were >95% pure by proton nuclear magnetic resonance (NMR) and liquid chromatography/mass spectrometry (LC/MS). Stock solutions were prepared at 400x in DMSO, stored at -70 degrees C, and diluted in fresh medium prior to their use. The final concentration of DMSO in cell culture wells never exceeded 0.25% (v/v). The FDA-approved anticancer drug set is available from the Developmental Therapeutics Program at https://dtp.cancer.gov/organization/dscb/obtaining/available_plates.htm. All drugs and investigational agents were tested over a range starting from a high concentration at or near the clinical Cmax and decreasing in half-log increments. If the clinical Cmax for an agent had not been determined, the highest concentration tested was 10 microM.
Cell Lines. The patient-derived cancer cell (PDC) lines: 292921-168-R-J2-PDC, K24384-001-R-PDC, and 521955-158-R2-J5-PDC pancreatic carcinomas, 556581-035-R-J1 ovarian carcinoma, 324938-238-R-J1-PDC, 855422-203-R-J1-PDC and 883617-216-R-J1-PDC urothelial bladder carcinomas, 743489-274-T-PDC renal cell carcinoma, 138582-R-J1 Merkel cell tumor, K60290-347-R-J1 and K57222-313-R-J1-PDC glioblastomas, 653999-131-R-J2-PDC, LG0703-F948-PDC, and 349418-098-R-PDC non-small cell lung carcinomas, 885512-296-R-J2-PDC, 171881-019-R-J1-PDC breast carcinomas and 186277-243-T-J2-PDC and 233499-124-R-J2-PDC colon carcinomas were obtained from the NCI Patient-Derived Models Repository (PDMR, https://pdmr.cancer.gov). The established cell lines NCI/ADR-RES (RRID:CVCL_14520 and OVCAR-5 (RRID:CVCL_1628) ovarian carcinomas, 786-O (RRID:CVCL_1051) and A498 (RRID:CVCL_A498) renal cell carcinoma, NCI-H211 (ATCC, cat. CRL-5824; RRID:CVCL_1529), NCI-H196 (ATCC, cat. CRL-5823, RRID:CVCL_1509), SW 1271 (ATCC, cat. CRL-2177, RRID:CVCL_1716) and NCI-H1876 (ATCC, cat. CRL-5902, RRID:CVCL_1503) small cell lung carcinomas, MDA-MB-231 (RRID:CVCL_0062) and MDA-MB-468 (RRID:CVCL_0419)breast carcinomas (10-12). Pooled donor human umbilical vein endothelial cells (HUVEC, Lonza, cat. CC-2519) and human mesenchymal stem cells (hMSC, Lonza, cat. PT-2501) were purchased from Lonza (Walkersville, MD).
Cell Culture. All cells were maintained in an incubator at 37 degrees C and 5% CO2 with 95% humidity. The PDC lines were cultured according to standard operating procedures established by the NCI PDMR (https://pdmr.cancer.gov). Briefly all PDCs were thawed and cultured in Matrigel-coated flasks prepared with a working solution of 1X Ham's F-12 nutrient mix, without supplementation (Invitrogen, Waltham, MA, cat. 11765054), 100 U/mL penicillin-streptomycin (Invitrogen, cat. 15140122), and 2.5% Matrigel (Corning Inc., Corning, NY, cat. 354248) for the first three passages. […]

[1] = second compound 0.1 µM, first compound 0.00316 µM
[2] = second compound 0.1 µM, first compound 0.01 µM
[3] = second compound 0.1 µM, first compound 0.0316 µM
[4] = second compound 0.1 µM, first compound 0.1 µM
[5] = second compound 0.316 µM, first compound 0.00316 µM
[6] = second compound 0.316 µM, first compound 0.01 µM
[7] = second compound 0.316 µM, first compound 0.0316 µM
[8] = second compound 0.316 µM, first compound 0.1 µM
[9] = second compound 1 µM, first compound 0.00316 µM
[10] = second compound 1 µM, first compound 0.01 µM
[11] = second compound 1 µM, first compound 0.0316 µM
[12] = second compound 1 µM, first compound 0.1 µM
[13] = second compound 3.16 µM, first compound 0.00316 µM
[14] = second compound 3.16 µM, first compound 0.01 µM
[15] = second compound 3.16 µM, first compound 0.0316 µM
[16] = second compound 3.16 µM, first compound 0.1 µM
[17] = second compound 10 µM, first compound 0.00316 µM
[18] = second compound 10 µM, first compound 0.01 µM
[19] = second compound 10 µM, first compound 0.0316 µM
[20] = second compound 10 µM, first compound 0.1 µM

CC[C@@]1(O)C(=O)OCc2c1cc1n(c2=O)Cc2cc3c(CN(C)C)c(O)ccc3nc2-1 + NC1CC1c1ccc(-c2cccc(O)c2)cc1
active: viability, T/C [2] 7.83% | viability, T/C [3] 4.57% | viability, T/C [4] 4.01% | viability, T/C [6] 7.26% | viability, T/C [7] 4.33% | viability, T/C [8] 3.89% | viability, T/C [10] 7.25% | viability, T/C [11] 4.02% | viability, T/C [12] 3.43% | viability, T/C [14] 6.86% | viability, T/C [15] 3.9% | viability, T/C [16] 2.97% | viability, T/C [18] 7.24% | viability, T/C [19] 4.44% | viability, T/C [20] 3.53%
1.32 nM: IC50 (second compound 0.1 µM)
1.15 nM: IC50 (second compound 1 µM)
inactive: viability, T/C (second compound 0.1 µM, first compound 0.000316 µM) 95.6% | viability, T/C (second compound 0.1 µM, first compound 0.001 µM) 61.8% | viability, T/C [1] 12.6% | viability, T/C (second compound 0.316 µM, first compound 0.000316 µM) 97.4% | viability, T/C (second compound 0.316 µM, first compound 0.001 µM) 57.1% | viability, T/C [5] 12.2% | viability, T/C (second compound 1 µM, first compound 0.000316 µM) 90.9% | viability, T/C (second compound 1 µM, first compound 0.001 µM) 55.3% | viability, T/C [9] 12.1% | viability, T/C (second compound 3.16 µM, first compound 0.000316 µM) 98% | viability, T/C (second compound 3.16 µM, first compound 0.001 µM) 51.8% | viability, T/C [13] 12.3% | viability, T/C (second compound 10 µM, first compound 0.000316 µM) 67.6% | viability, T/C (second compound 10 µM, first compound 0.001 µM) 43.5% | viability, T/C [17] 13.9%
1.2 nM: IC50 (second compound 0.316 µM)
1.05 nM: IC50 (second compound 3.16 µM)
0.731 nM: IC50 (second compound 10 µM)

COc1cc(C2c3cc4c(cc3C(OC3OC5COC(C)OC5C(O)C3O)C3COC(=O)C23)OCO4)cc(OC)c1O (stereo not given) + NC1CC1c1ccc(-c2cccc(O)c2)cc1
47.2 nM: IC50 (second compound 3.16 µM)
active: viability, T/C (second compound 0.1 µM, first compound 0.3 µM) 13% | viability, T/C (second compound 0.1 µM, first compound 0.949 µM) 7.49% | viability, T/C (second compound 0.1 µM, first compound 3 µM) 3.87% | viability, T/C (second compound 0.316 µM, first compound 0.949 µM) 7.32% | viability, T/C (second compound 0.316 µM, first compound 3 µM) 3.63% | viability, T/C (second compound 1 µM, first compound 0.3 µM) 11.3% | viability, T/C (second compound 1 µM, first compound 0.949 µM) 6.82% | viability, T/C (second compound 1 µM, first compound 3 µM) 3.4% | viability, T/C (second compound 3.16 µM, first compound 0.3 µM) 11% | viability, T/C (second compound 3.16 µM, first compound 0.949 µM) 6.58% | viability, T/C (second compound 3.16 µM, first compound 3 µM) 3.35% | viability, T/C (second compound 10 µM, first compound 0.3 µM) 14.5% | viability, T/C (second compound 10 µM, first compound 0.949 µM) 8.05% | viability, T/C (second compound 10 µM, first compound 3 µM) 3.42%
50.8 nM: IC50 (second compound 0.316 µM)
57.7 nM: IC50 (second compound 0.1 µM)
45.5 nM: IC50 (second compound 1 µM)
inactive: viability, T/C (second compound 0.1 µM, first compound 0.00949 µM) 88.3% | viability, T/C (second compound 0.1 µM, first compound 0.03 µM) 79.1% | viability, T/C (second compound 0.1 µM, first compound 0.0949 µM) 27.5% | viability, T/C (second compound 0.316 µM, first compound 0.00949 µM) 107% | viability, T/C (second compound 0.316 µM, first compound 0.03 µM) 69.9% | viability, T/C (second compound 0.316 µM, first compound 0.0949 µM) 26% | viability, T/C (second compound 0.316 µM, first compound 0.3 µM) 11.5% | viability, T/C (second compound 1 µM, first compound 0.00949 µM) 90% | viability, T/C (second compound 1 µM, first compound 0.03 µM) 64.2% | viability, T/C (second compound 1 µM, first compound 0.0949 µM) 24.7% | viability, T/C (second compound 3.16 µM, first compound 0.00949 µM) 89.8% | viability, T/C (second compound 3.16 µM, first compound 0.03 µM) 68.7% | viability, T/C (second compound 3.16 µM, first compound 0.0949 µM) 21% | viability, T/C (second compound 10 µM, first compound 0.00949 µM) 68.2% | viability, T/C (second compound 10 µM, first compound 0.03 µM) 42.8% | viability, T/C (second compound 10 µM, first compound 0.0949 µM) 15.8%
21 nM: IC50 (second compound 10 µM)

Nc1ncn(C2CC(O)C(CO)O2)c(=O)n1 (stereo not given) + NC1CC1c1ccc(-c2cccc(O)c2)cc1
inactive: viability, T/C [1] 87.3% | viability, T/C [2] 66.9% | viability, T/C [3] 27.2% | viability, T/C [4] 12.3% | viability, T/C [5] 89.9% | viability, T/C [6] 74.8% | viability, T/C [7] 31.2% | viability, T/C [8] 11.8% | viability, T/C [9] 92.4% | viability, T/C [10] 72.2% | viability, T/C [11] 27.8% | viability, T/C [12] 12.6% | viability, T/C [13] 90.1% | viability, T/C [14] 64% | viability, T/C [15] 24.4% | viability, T/C [16] 11.6% | viability, T/C [17] 69% | viability, T/C [18] 48.1% | viability, T/C [19] 25.1% | viability, T/C [20] 11.4%
9.07 nM: IC50 (second compound 10 µM)
19.3 nM: IC50 (second compound 0.316 µM)
15 nM: IC50 (second compound 3.16 µM)
active: viability, T/C (second compound 0.1 µM, first compound 0.316 µM) 9.59% | viability, T/C (second compound 0.1 µM, first compound 1 µM) 7.38% | viability, T/C (second compound 0.316 µM, first compound 0.316 µM) 8.68% | viability, T/C (second compound 0.316 µM, first compound 1 µM) 6.69% | viability, T/C (second compound 1 µM, first compound 0.316 µM) 7.79% | viability, T/C (second compound 1 µM, first compound 1 µM) 7.05% | viability, T/C (second compound 3.16 µM, first compound 0.316 µM) 8.23% | viability, T/C (second compound 3.16 µM, first compound 1 µM) 6.83% | viability, T/C (second compound 10 µM, first compound 0.316 µM) 7.65% | viability, T/C (second compound 10 µM, first compound 1 µM) 6.35%
17.9 nM: IC50 (second compound 1 µM)
16.4 nM: IC50 (second compound 0.1 µM)
